# Source: US11241450B2, “Uridine diphosphate derivatives, prodrugs, compositions and uses thereof” (TUFTS UNIVERSITY, priority 2012, dated 2022)
# Counter-ions that a name gives are not always drawn. Like-named read-outs stand apart in the source and are kept apart here.
# Legend:
# P2Y6 receptor [1] = target: T1, P2Y6 receptor (Homo sapiens, UniProt Q15077); details: cited from earlier work
# PSAPP mice [2] = test: Contextual fear conditioning test; format: in vivo, mouse
# Description: (§1) Heterozygous mutant (K670N/M671L) APP (50% C57B6, 50% SJL) transgenic mice were crossed with heterozygous mutant (A246E) PS-1 (50% C57B6, 50% SJL) transgenic mice to generate heterozygous PSAPP transgenic mice (also referred to as PS-1/APP or PSAPP+/+ mice), which refers to animals heterozygous for the PS-1 A246E transgene and the APP K670N/M671L transgene. Non-transgenic control animals were littermates (also referred to as PSAPP_−/− mice) generated in the breeding for PSAPP transgenic animals. Mouse genotype was determined by Polymerase Chain Reaction (PCR). Both male and female mice of 6-7 months old were used for the experiments below. All animal experiments were performed in accordance with the Tufts Animal Care and Use Committee and with national regulations and policies.
# On day one, animals were trained in a fear conditioning apparatus for a total of 7 minutes with a two-pairing paradigm of cue and mild foot shock (a 30-s acoustic-conditioned stimulus, 80 dB; a 2-s shock stimulus, 0.5 mA). To evaluate contextual fear learning, the animals were returned to the training context 24 hours post-training, and freezing behavior was scored for 5 minutes. Freezing behavior was monitored by MotorMonitor (Hamilton Kinder) and scored every 5 seconds.
# In this study, the fear conditioning associative learning paradigm was used as a rapid cognition assay for PSAPP mice. This study allowed us to probe cognitive function with a single training day followed in 24 hours by tests for contextual and cued fear learning. Contextual fear learning is dependent upon a brain area that has been implicated as a locus for cognitive decline in AD: the hippocampus. Two pairings of CS-US for fear conditioning were followed 24 hours later by testing for contextual and cued fear learning. Previous studies have reported that PSAPP animals appear to have a selective hippocampus-dependent impairment in associative learning following two pairings of conditioned stimuli for fear conditioning.
# This represents a decrease in the cognitive impairment observed in the untreated mice.
# PSAPP mice [3] = test: Tolerability of increased dose in PSAPP mice; format: in vivo, mouse; details: 1000× increase in dose
# [4] = test system: amyloid plaques in PSAPP mice; test: Postmortem immunohistochemistry of plaque load in cortex and hippocampus; format: in vivo, mouse; details: for decrease in plaque load, cortex / decrease in plaque load, hippocampus: acute i.c.v.
# Description: as §1
# Mice were perfused transcardially with 4% paraformaldehyde and 40 μm Coronal sections were collected. Sections were sequentially incubated in 0.3% H2O2 for 10 minutes, blocking solution for 2 hrs, blocking solution containing the primary antibody (rabbit anti-beta1-42; rabbit anti-beta1-40, from Chemicon International and rat anti-CD45) for 48 hours at 4° C., and blocking solution containing biotinylated antibody or fluorescently-labeled antibody for 2 hours at room temperature. Sections were visualized in a bright field microscope or a confocal microscope, and the optical density was obtained using MetaMorph software.
# After repeated imaging, brains were fixed and subjected to postmortem immunohistochemistry with amyloid beta specific antibodies β1-40 and β1-42 to evaluate the plaque load (area occupied by immunostaining of plaque) in cortex and hippocampus.
# PSB0474 was systemically administered to PSAPP mice via intraperitoneal injection for 2, 4 and 6 consecutive days. In one group, prior to evaluation and following to administration for 6 consecutive days, treatment was suspended for two weeks (6+2 weeks group). Brains were then fixed and plaque load was evaluated by immunostaining with the amyloid beta specific antibodies: β1-40 and β1-42. Representative images of plaque load in cortex and hippocampus from animals that received injections of PSB0474 according to the foregoing injection schedules are shown in FIG. 5(A)-(D). […] Whereas, when administration of PSB0474 was stopped for 2 weeks following six consecutive days of treatment (denoted as the 6+2 weeks group), β1-40 staining rebounded; although to a level lower than observed in mice treated with saline as a vehicle control. FIGS. 6A and 6B depict the reduction in plaque load (%) the cortex and hippocampus, respectively, in PSAPP mice after treatment with 3-phenacyl-UDP for 2, 4, or 6 consecutive days, as assayed by staining with the β1-40 antibody. FIGS. 6C-6F depict data obtained following administration of different dosages of PSB0474.
# To generate these graphs showing plaque load, mice were euthanized, brain sections cut and antibodies directed against Aβ 42 were used to disclose Aβ plaques. Images were acquired digitally and an algorithm was applied to threshold the image so that plaques were isolated from the background. The algorithm then calculated the percent area of the field of view occupied by the plaques.
# plasma cytokines = test: Plasma cytokine levels after 7 daily i.p. injections; format: in vivo, mouse; details: 1 μg/kg i.p., 7 days
# Protocol: Inflammatory cytokines were assessed in mouse plasma of both wild type and PS1/APP mice (Alzheimer's mouse model) and the impact of intraperitoneal delivery of compound 5 on circulating cytokines was assessed. Seven daily intraperitoneal injections of 1 μg/kg of compound 5 were delivered to mice. 24 hours following the final injection, plasma was collected. Wildtype, age matched littermates and PSAPP mice (>6 months of age) were treated either with vehicle (phosphate buffered saline) or vehicle containing compound.
# PSAPP mice [5] = test: Hippocampal long-term potentiation (LTP) recording; format: in vivo, mouse; details: acute treatment, HFS
# Protocol: Hippocampal slices (350 μm thick) were prepared from 6-month-old PSAPP mice. Baseline responses were obtained every 10 seconds and Input-output (I/O) curves, paired-pulse modification and LTP were successively measured. The stimulation intensity was set to a level that gives a value of 30% of the maximum obtained. LTP were induced by high frequency stimulation (HFS, 100 pulses at 100 Hz, four times) or by theta-burst stimulation (TBS, 10 bursts at 5 Hz, repeated 10 times in 15 s intervals).
# Accumulated evidence has shown that amyloid peptides naturally secreted or isolated from Alzheimer's brains impair synaptic plasticity, especially hippocampal long-term potentiation (Walsh et al., 2002). Therefore, we further performed LTP recordings in PASPP mice and investigated whether P2Y6 receptor-mediated plaque clearance affects synaptic plasticity. […] First, it was observed that LTP at the schaffer collateral synapse within the CA1 region was depressed in PSAPP mice, as compared with littermates (FIG. 8(A)).
# [6] = test system: amyloid plaques in PSAPP mice; test: Two-photon in vivo imaging of methoxyX04-labeled amyloid plaques in barrel cortex; design: species or system mouse; details: acute i.c.v. injection
# Description: as §1
# In this study, PSAPP mice were anesthetized using isoflurane and a thin-skull preparation was used to minimize the surface damage. Amyloid plaques were visualized with methoxyX04 labeling and blood plasma was labeled with Rhodamine dextran to facilitate re-localization of the same imaging area. Stack images were obtained using a two-photon system (Prairie Technologies) with excitation at 850 nm. The emission was detected by external photomultiplier tubes (525/70; DLCP 575; 607/45 nm).
# Animals were anesthetized and immobilized in a stereotaxic frame. For each injection, 1 μl of 10 mM UDP or other suitable compounds in artificial cerebrospinalfluid (ACSF) as the vehicle were injected intraventricularly using the following coordinates: AP 0.2 mm, ML 1 mm, and DV 2.2 mm.
# To evaluate the effect of UDP on plaque burden, two-photon microscopy was used to assess the amyloid plaques in the barrel cortex in living PSAPP mice. Amyloid plaques were stained by systemically administered methoxy-X04. One day prior to imaging, PSAPP mice were injected with methoxyX04 to label the amyloid plaques. On the imaging day, to facilitate the re-location of the same imaging area, blood plasma was labeled with Rhodamine dextran. Images were obtained from the same start- and end-point to ensure the same image volume. […]
# P2Y4 receptor = target: T2, P2Y4 receptor (Homo sapiens, UniProt P51582); test: Ca2+ mobilization with fluo-4 in 1321N1 astrocytoma cells expressing P2Y4; format: cell-based; details: 1321N1 cells expressing P2Y4
# T2 construct: expressed in transfected cells; host or cells: 1321N1 human astrocytoma cells
# T2 sequence (P51582 whole entry): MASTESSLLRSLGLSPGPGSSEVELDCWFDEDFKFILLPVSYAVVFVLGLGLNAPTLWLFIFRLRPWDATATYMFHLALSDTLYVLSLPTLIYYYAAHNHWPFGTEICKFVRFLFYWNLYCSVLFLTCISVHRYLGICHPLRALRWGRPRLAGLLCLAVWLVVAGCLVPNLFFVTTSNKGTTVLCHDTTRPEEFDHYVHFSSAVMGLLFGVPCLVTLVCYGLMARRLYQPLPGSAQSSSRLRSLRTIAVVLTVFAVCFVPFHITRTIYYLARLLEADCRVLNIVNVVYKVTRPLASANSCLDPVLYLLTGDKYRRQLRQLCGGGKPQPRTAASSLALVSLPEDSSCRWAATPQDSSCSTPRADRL
# Protocol: (§2) Synthetic ligands were tested for activation of P2Y6 receptor by measuring receptor induced Ca^2+ changes with the fluorescent Ca^2+ indicator fluo-4. 1321N1 human astrocytoma cell lines either expressing P2Y2, P2Y4 or P2Y6 receptors were plated into 24-well plates. Two days after plating, fluorometric measurements were made and responses of cells to a serial dilution of ligands were determined. P2Y6 receptor-mediated Ca^2+ fluorescent change was determined by normalized accumulation of fluorescent change of 3 timepoints after ligand administration subtracted by value from ACSF control. Changes in fluorescent intensity were plotted corresponding to ligand concentration in GraphPad. Dose-response curve and EC50 for each ligand was estimated using nonlinear curve fit and Sigmoidal dose-response analysis. […]
# (§3) Synthetic ligands were tested for activation of P2Y6 receptor by measuring receptor induced Ca^2+ changes with the fluorescent Ca^2+ indicator fluo-4, and results are shown in FIG. 10(A)-(K). […] Two days after plating, fluorometric measurements were made and responses of cells to a serial dilution of ligands were determined. P2Y6 receptor-mediated Ca^2+ fluorescent change was determined by normalized accumulation of fluorescent change of 3 timepoints after ligand administration subtracted by value from ACSF control. […]
# P2Y2 receptor = target: T3, P2Y2 receptor (Homo sapiens, UniProt P41231); test: Ca2+ mobilization with fluo-4 in 1321N1 astrocytoma cells expressing P2Y2; format: cell-based; details: 1321N1 cells expressing P2Y2
# T3 construct: expressed in transfected cells; host or cells: 1321N1 human astrocytoma cells
# T3 sequence (P41231 whole entry): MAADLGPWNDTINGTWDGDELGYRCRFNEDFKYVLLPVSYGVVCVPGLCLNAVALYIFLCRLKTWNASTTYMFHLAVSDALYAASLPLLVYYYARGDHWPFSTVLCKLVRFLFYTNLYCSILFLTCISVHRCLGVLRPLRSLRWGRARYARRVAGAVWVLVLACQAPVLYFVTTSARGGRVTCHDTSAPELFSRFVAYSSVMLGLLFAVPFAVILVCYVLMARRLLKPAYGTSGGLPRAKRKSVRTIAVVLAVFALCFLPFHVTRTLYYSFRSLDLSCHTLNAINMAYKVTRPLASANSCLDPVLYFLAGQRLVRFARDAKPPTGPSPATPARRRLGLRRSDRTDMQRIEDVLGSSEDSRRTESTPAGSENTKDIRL
# Protocol: as §2, §3
# P2Y6 receptor [7] = target: T1, P2Y6 receptor; test: Activation of P2Y6 receptor: Ca2+ changes with fluo-4 in 1321N1 astrocytoma cells expressing P2Y6; format: cell-based; design: expressed in transfected cells; host or cells: 1321N1 human astrocytoma cells
# Protocol: Synthetic ligands were tested for activation of P2Y6 receptor by measuring receptor induced Ca^2+ changes with the fluorescent Ca^2+ indicator fluo-4. 1321N1 human astrocytoma cell lines either expressing P2Y2, P2Y4 or P2Y6 receptors were plated into 24-well plates. Two days after plating, fluorometric measurements were made and responses of cells to a serial dilution of ligands were determined. P2Y6 receptor-mediated Ca^2+ fluorescent change was determined by normalized accumulation of fluorescent change of 3 timepoints after ligand administration subtracted by value from ACSF control. Changes in fluorescent intensity were plotted corresponding to ligand concentration in GraphPad. Dose-response curve and EC50 for each ligand was estimated using nonlinear curve fit and Sigmoidal dose-response analysis. […] The sodium salt of compound 5 was only effective at elevating Ca^2+ levels when applied to cells expressing P2Y6 receptors and not effective in P2Y2, or P2Y4 receptor expressing cells. The ability of the sodium salt of compound 5 to elevate Ca^2+ signals in P2Y6 expressing cells was attenuated by addition of the P2Y6 receptor antagonist MRS2578.
# as §2, with “fluo-4, and results are shown in FIG. 10(A)-(K).” for “fluo-4.”
# [8] = i.p. daily for 7 consecutive days
# [9] = β1-42 antibody, vs vehicle control
# T1 sequence (Q15077 whole entry): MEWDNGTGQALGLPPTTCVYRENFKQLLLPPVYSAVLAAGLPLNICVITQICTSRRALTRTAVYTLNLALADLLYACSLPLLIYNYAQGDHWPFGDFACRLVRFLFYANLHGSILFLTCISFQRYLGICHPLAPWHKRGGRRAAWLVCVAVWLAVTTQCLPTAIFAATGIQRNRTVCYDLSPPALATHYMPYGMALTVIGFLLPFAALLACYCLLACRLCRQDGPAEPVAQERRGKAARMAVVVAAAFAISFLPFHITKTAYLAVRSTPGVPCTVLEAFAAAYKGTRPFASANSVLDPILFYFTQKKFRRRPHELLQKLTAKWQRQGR
structure (smiles),measurement,setting,value
O=C(Cn1c(=O)ccn(C2OC(COP(=O)(O)OP(=O)(O)O)C(O)C2O)c1=O)c1ccccc1 (centres unmarked) [3-phenacyl-UDP],selectivity for P2Y6 receptor,P2Y6 receptor [1],> 500 fold
same,EC50,"P2Y6 receptor [1]; read-out: EC50, P2Y6 receptor agonist",70 nM
same,total freezing percentage in context test,"PSAPP mice [2]; chronic injection, two doses",increased
same,memory deficit in contextual fear conditioning test,PSAPP mice [2]; one week treatment with 1 μg/kg,rescued the memory deficit
same,detrimental effects to the animal,PSAPP mice [3],did not cause detrimental effects
same,effects on the efficacy endpoint at the higher dose,[4]; 1 mg/kg,smaller effects
same,β1-40 staining after stopping administration,"[4]; 6 consecutive days i.p., then stopped for 2 weeks",rebounded
same,immunoreactivity of β1-40 in cortex and hippocampus,[4]; i.p. for 4 and 6 consecutive days,significantly decreased
O=c1ccn([C@@H]2O[C@H](COP(=O)(O)OP(=O)(O)O)[C@H](O)C2O)c(=O)n1Cc1noc2ccccc12 (some centres unmarked) [Compound 5],freezing behavior relative to wildtype animals,PSAPP mice [2]; [8],restored to a level equivalent to that observed in wildtype animals
same,total freezing percentage in the context test,PSAPP mice [2]; [8],increased
same,plasma level of IL-2,plasma cytokines; PSAPP mice,reduced
same,plasma level of IL-7,plasma cytokines; PSAPP mice,reduced
same,plasma level of IL-9,plasma cytokines; PSAPP mice,reduced
same,plasma level of IL-10,plasma cytokines; PSAPP mice,reduced
same,plasma level of IL-15,plasma cytokines; PSAPP mice,reduced
same,plasma level of Il-1β,plasma cytokines; PSAPP mice,reduced
same,plasma level of MIG,plasma cytokines; PSAPP mice,reduced
same,plasma level of MIP1α,plasma cytokines; PSAPP mice,reduced
same,plasma level of IL-2,plasma cytokines; wildtype animals,reduced
same,plasma level of IL-10,plasma cytokines; wildtype animals,reduced
same,Aβ plaque load (%) in the cortex,[4]; [9],substantial decrease
same,Aβ plaque load (%) in the hippocampus,[4]; [9],substantial decrease
"O=c1ccn([C@@H]2O[C@H](COP(=O)(O)OP(=O)(O)O)[C@@H](O)[C@H]2O)c(=O)[nH]1 [UDP, uridine diphosphate]",LTP deficit at CA1,PSAPP mice [5],reversed this LTP deficit
same,"field excitatory postsynaptic potential (fEPSP), last 15 min potentiation",PSAPP mice [5],significant increase
same,freezing behavior during the first 4 minutes,"PSAPP mice [2]; acute i.c.v., 5 minute testing time",increased
same,total freezing percentage,"PSAPP mice [2]; acute i.c.v., contextual test",49%±5%
same,"decrease in plaque load, cortex",[4]; β1-40 antibody,60%
same,"decrease in plaque load, hippocampus",[4]; β1-40 antibody,62%
same,"decrease in plaque load, cortex",[4]; β1-42 antibody,48%
same,"decrease in plaque load, hippocampus",[4]; β1-42 antibody,47%
same,reduction in plaque load,"[6]; day 4 vs day 1, barrel cortex",17.2%
same,reduction in the number of plaques,"[6]; day 4 vs day 1, barrel cortex",12.6%
same,reduction in cross-sectional area of individual identified plaques,[6]; second imaging session,18.2%
O=c1ccn(C2OC(COP(=O)(O)OP(=O)(O)O)[C@H](O)C2O)c(=O)n1Cc1noc2ccccc12 (some centres unmarked) [sodium salt of compound 5],elevating Ca2+ levels in P2Y4 receptor expressing cells,P2Y4 receptor,not effective
same,elevating Ca2+ levels in P2Y2 receptor expressing cells,P2Y2 receptor,not effective
same,elevating Ca2+ levels in cells expressing P2Y6 receptors,P2Y6 receptor [7]; 1321N1 cells expressing P2Y6,effective
same,EC50,"P2Y6 receptor [7]; 1321N1 cells expressing P2Y6, fluo-4 Ca2+",12 nM
same,ability to elevate Ca2+ signals on addition of P2Y6 receptor antagonist MRS2578,"P2Y6 receptor [7]; P2Y6 expressing cells, plus MRS2578",attenuated
